Source: paper PMC7279038, “Antioxidant and Neuroprotective Effects Induced by Cannabidiol and Cannabigerol in Rat CTX-TNA2 Astrocytes and Isolated Cortexes” (International Journal of Molecular Sciences, 2020)

Assays:
[1] = target: T1, AChE (acetylcholinesterase) (Electrophorus electricus, UniProt O42275); experiment: AChE inhibition, colorimetric cholinesterase assay; format: biochemical, electric eel; conditions: mean ± S.D., n = 3
T1 construct: purchased Sigma Aldrich S.r.l., Milan, Italy Type-VI-S (catalogue number not given)

cytochrome C (Cyt C) = experiment: Western blotting analysis of cytochrome C; format: cell-based, rat; conditions: CTX-TNA2 challenged with H2O2, 24 h; 1000 nM CBD, 1 nM CBG
Description: […] The stock solutions were diluted in cell medium to the point that the concentration of DMSO in the samples was less than 0.0003%. Therefore, the addition of DMSO to the control samples was not necessary.
The western blowing analysis of Bax and Cyt C was carried out as previously reported. Specifically, CTX-TNA2 lysates (20 µg) were boiled fof 5 min in sample buffer, made of tris-HCl pH 6.8, glycerol, 2-mercaptoethanol, SDS and bromophenol blue. They were then electrophoresed and transferred to nitrocellulose membranes. […] Immunoreactive bands were identified using the ECL detection system (Euroclone, Pero, Milano, Italy) and analyzed by densitometry. Densitometric values were quantified by the CHEMIDOC XRS system and expressed as Integrated Optical Intensity using the QuantiOne 1-D analysis software (Bio-rad Laboratories, Richmond, CA, USA). […] Results are expressed as the mean ± SD.

[2] = test system: isolated rat cortexes, kynurenic acid (KA); experiment: K+ 60 mM neurotoxicity paradigm, kynurenic acid level; conditions: for effect on K+ 60 mM-induced reduction in kynurenic acid (KA) level: CBD 1000 nM, CBG 1 nM
Description: (§1) Sprague–Dawley rats (200–250 g) were sacrificed by CO2 inhalation (Italian Health Ministry authorization N. F4738.N.XTQ, delivered on 11th November 2018) and isolated prefrontal cortex specimens were immediately explanted and incubated in thermostatic shaking bath at 37 °C for 1 h (incubation period), in Krebs–Ringer buffer at the following K^+ concentrations:
(§2) Cortexes were stimulated with CBD (1000 nM) and […]. Afterwards, specimens were homogenized in perchloric acid solution (0.05 M) for the extraction and quantification of nitrites, via the aforementioned colorimetric Griess assay, and serotonin (5-HT), 5-hydroxyindoleacetic (5HIIA),3-hydroxykinurenine (3-HK) and kinurenic acid (KA) (ng/mg wet tissue) via high performance liquid chromatography analysis. Additionally, an untargeted proteomic analysis was carried out on the cortex homogenate. The analytical protocols for 5-HT, 5HIIA, 3-HK, KA and protein level determinations are described below. The analyses were conducted in triplicate and in independent facilities with blind modality.
The KA quantitative determination was performed by using a liquid chromatograph (MOD. 1525, Waters Corporation, Milford MA, USA) equipped with a fluorimetric detector (MOD. 2475, Waters Corporation), a C18 reversed-phase column (AcclaimTM 120, 3 µm, 2.1 × 100 mm, Dionex Corporation, Sunnyvale, CA, USA), and an online degasser (Biotech 4-CH degasi compact, LabService, Anzola Emilia, Italy). The separation was conducted in isocratic conditions and the mobile phase consisted of 250 mM zinc acetate, 50 mM sodium acetate, and 3% acetonitrile (pH adjusted to 6.2 with glacial acetic acid), using a flow rate of 1.0 mL/min. In the eluate, the KA was identified and measured fluorimetrically (excitation: 344 nm; emission: 398 nm).

histone H2B = experiment: Untargeted proteomic analysis of cortexes, H2B; set-up: species or system rat; conditions: CBD 1000 nM, CBG 1 nM
Description: as §1
as §2, with “The analyses were conducted in triplicate and in independent facilities with blind modality.” left out
After protein quantification, a volume corresponding to 50 μg of proteins was loaded onto a Nanosep 10-kDa-cutoff filter (Pall Corporation, Michigan, USA) and digested according to the protocol we routinely use in our laboratory, adapted from Distler et al. Briefly, the sample was washed twice with 200 μL urea buffer (8M urea, 100 mM Tris pH 8.5 in milliQ water) to remove the detergents present in the lysis buffer. […]

T1 sequence (O42275 24-633): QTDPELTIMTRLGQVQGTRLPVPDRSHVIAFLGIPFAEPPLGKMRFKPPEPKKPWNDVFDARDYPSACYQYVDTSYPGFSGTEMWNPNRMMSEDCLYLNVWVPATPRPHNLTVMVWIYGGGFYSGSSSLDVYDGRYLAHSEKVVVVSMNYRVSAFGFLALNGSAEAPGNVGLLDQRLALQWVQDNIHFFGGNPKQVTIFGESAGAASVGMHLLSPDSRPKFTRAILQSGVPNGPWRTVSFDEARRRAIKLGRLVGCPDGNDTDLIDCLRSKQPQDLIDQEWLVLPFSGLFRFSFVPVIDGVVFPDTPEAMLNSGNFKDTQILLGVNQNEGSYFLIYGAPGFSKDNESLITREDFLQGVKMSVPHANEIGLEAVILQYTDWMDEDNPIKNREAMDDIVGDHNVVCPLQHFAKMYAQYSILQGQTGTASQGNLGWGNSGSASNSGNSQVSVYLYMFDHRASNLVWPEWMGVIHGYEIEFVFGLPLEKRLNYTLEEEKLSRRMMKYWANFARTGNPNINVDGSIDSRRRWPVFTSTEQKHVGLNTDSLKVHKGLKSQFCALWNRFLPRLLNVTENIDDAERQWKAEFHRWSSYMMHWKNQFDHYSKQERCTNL

With `C=C(C)[C@@H]1CCC(C)=C[C@H]1c1c(O)cc(CCCCC)cc1O` [CBD, Cannabidiol] the IC50 [1] was 1.04 ± 0.02 mM, the “Cyt C expression” value (cytochrome C (Cyt C)) was “decrease the Cyt C levels in comparison to H2O2 sample” and the “effect on K+ 60 mM-induced reduction in kynurenic acid (KA) level” value [2] was “successful in blunting”. For the same molecule, the “effect on K+ 60 mM-induced reduction in H2B level” value (histone H2B) was “effective in counteracting the downregulation”.

For `CCCCCc1cc(O)c(C/C=C(\C)CCC=C(C)C)c(O)c1` [CBG, cannabigerol], the IC50 [1] was 1.15 ± 0.03 mM, the “Cyt C expression” value (cytochrome C (Cyt C)) was “effect on Bax only” and the “effect on K+ 60 mM-induced reduction in kynurenic acid (KA) level” value [2] was “completely ineffective”. The KA level ([2]; basal conditions only) was “increase KA levels” and the “effect on K+ 60 mM-induced reduction in H2B level” value (histone H2B) was “effective in counteracting the downregulation”.
